Experimental data from patent US20240158446A1, “CYCLIC COMPOUND HAVING SELECTIVE INHIBITORY ACTION ON KRAS OVER HRAS AND NRAS” (CHUGAI SEIYAKU KABUSHIKI KAISHA, priority 2021, published 2024).

Legend:
[1] = target: GDP-bound NRAS wild-type protein (Homo sapiens, UniProt P01111); assay: Binding to NRAS by surface plasmon resonance (SPR), Single Cycle Kinetics; conditions: SPR, GDP-bound NRAS wild-type protein vs GDP-bound KRAS wild-type protein
[2] = target: GDP-bound HRAS wild-type protein (Homo sapiens, UniProt P01112); assay: Binding to HRAS by surface plasmon resonance (SPR), Single Cycle Kinetics; conditions: SPR, GDP-bound HRAS wild-type protein vs GDP-bound KRAS wild-type protein
Chain of GDP-bound HRAS wild-type protein (P01112 whole entry): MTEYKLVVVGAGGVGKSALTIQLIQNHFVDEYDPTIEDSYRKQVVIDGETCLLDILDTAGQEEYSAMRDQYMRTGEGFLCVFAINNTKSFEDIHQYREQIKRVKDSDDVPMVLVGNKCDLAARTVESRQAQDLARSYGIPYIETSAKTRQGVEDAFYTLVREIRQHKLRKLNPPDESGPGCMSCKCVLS

Chain of GDP-bound NRAS wild-type protein (P01111 whole entry): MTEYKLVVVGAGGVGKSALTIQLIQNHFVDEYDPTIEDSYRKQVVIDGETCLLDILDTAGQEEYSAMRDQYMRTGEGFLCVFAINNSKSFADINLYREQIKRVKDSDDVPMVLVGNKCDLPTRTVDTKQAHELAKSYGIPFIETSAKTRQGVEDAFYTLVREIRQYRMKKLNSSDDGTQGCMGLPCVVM

| SMILES | NRAS/KRAS (ratio of KD value for NRAS to KD value for KRAS) [1] | HRAS/KRAS (ratio of KD value for HRAS to KD value for KRAS) [2] |
| --- | --- | --- |
| CCC(CC)[C@H]1C(=O)N(C)[C@H](C(=O)N(C)C)CC(=O)N(C)[C@@H](COC)C(=O)N[C@@H]([C@@H](C)CC)C(=O)N(C)CC(=O)N(C)[C@H]2C/C=C\CCN(C2=O)[C@@H](Cc2ccc(C)cc2)C(=O)N(C)CC(=O)N[C@@H](CCc2ccc(Cl)c(Cl)c2)C(=O)N2CCCCC[C@H]2C(=O)NC2(CC(C)(C)C2)C(=O)N1C [PP2974] | A (a compound having 10 or more and less than 20 is denoted as A) | A (a compound having 10 or more and less than 20 is denoted as A) |
| C#CC[C@H]1C(=O)N[C@@H]([C@@H](C)CC)C(=O)N(C)CC(=O)N(C)[C@H]2C/C=C\CCN(C2=O)[C@@H](Cc2ccc(C)cc2)C(=O)N(C)CC(=O)N[C@@H](CCc2cc(F)c(C(F)(F)F)c(F)c2)C(=O)N2CC3(CC3)C[C@H]2C(=O)NC2(CC(C)(C)C2)C(=O)N(C)[C@@H](C2CCCC2)C(=O)N(C)[C@H](C(=O)N(C)C)CC(=O)N1C [PP2978] | A (a compound having 10 or more and less than 20 is denoted as A) | A (a compound having 10 or more and less than 20 is denoted as A) |
| CCC[C@H]1C(=O)N[C@@H]([C@@H](C)CC)C(=O)N(C)CC(=O)N(C)[C@H]2C/C=C\CCN(C2=O)[C@@H](Cc2ccc(C(F)(F)F)cc2)C(=O)N(C)CC(=O)N[C@@H](CCc2ccc(C(F)(F)F)c(Cl)c2)C(=O)N2CC3(CC3)C[C@H]2C(=O)NC2(CC(C)(C)C2)C(=O)N(C)[C@@H](CC(F)(F)F)C(=O)N(C)[C@H](C(=O)N(C)C)CC(=O)N1C [PP2985] | AA (a compound having 20 or more is denoted as AA) | A (a compound having 10 or more and less than 20 is denoted as A) |
| CCC[C@H]1C(=O)N[C@@H](C2CCCC2)C(=O)N(C)CC(=O)N(C)[C@H]2C/C=C\CCN(C2=O)[C@@H](Cc2ccc(C)cc2)C(=O)N(C)CC(=O)N[C@@H](CCc2cc(F)c(C(F)(F)F)c(F)c2)C(=O)N2C[C@H](OCC)C[C@H]2C(=O)NC2(CC(C)(C)C2)C(=O)N(C)[C@@H](C2CCCC2)C(=O)N(C)[C@H](C(=O)N(C)C)CC(=O)N1C [PP2988] | B (a compound having 3 or more and less than 10 is denoted as B) | B (a compound having 3 or more and less than 10 is denoted as B) |
| CCC[C@H]1C(=O)N[C@@H](C2CCCC2)C(=O)N(C)CC(=O)N(C)[C@H]2C/C=C\CCN(C2=O)[C@@H](Cc2ccc(C)cc2)C(=O)N(C)CC(=O)N[C@@H](CCc2ccc(C(F)(F)F)c(OC)c2)C(=O)N2CC3(CC3)C[C@H]2C(=O)NC2(CC(C)(C)C2)C(=O)N(C)[C@@H](C2CCCC2)C(=O)N(C)[C@H](C(=O)N(C)C)CC(=O)N1C [PP2994] | AA (a compound having 20 or more is denoted as AA) | A (a compound having 10 or more and less than 20 is denoted as A) |
| CCC[C@H]1C(=O)N[C@@H]([C@@H](C)CC)C(=O)N(C)CC(=O)N(C)[C@H]2C/C=C\CCN(C2=O)[C@@H](Cc2ccc(C)cc2)C(=O)N(C)CC(=O)N[C@@H](CCc2cc(F)c(C(F)(F)F)c(F)c2)C(=O)N2C[C@H](OCC)C[C@H]2C(=O)NC2(CC(C)(C)C2)C(=O)N(C)[C@@H](CC(C)C)C(=O)N(C)[C@H](C(=O)N(C)C)CC(=O)N1C [PP2995] | A (a compound having 10 or more and less than 20 is denoted as A) | A (a compound having 10 or more and less than 20 is denoted as A) |
| CCC[C@H]1C(=O)N[C@@H](C2CCCCC2)C(=O)N(C)CC(=O)N(C)[C@H]2C/C=C\CCN(C2=O)[C@@H](Cc2ccc(C)cc2)C(=O)N(C)CC(=O)N[C@@H](CCc2ccc(C(F)(F)F)c(Cl)c2)C(=O)N2C[C@H](OCC)C[C@H]2C(=O)NC2(CC(C)(C)C2)C(=O)N(C)[C@@H](C2CCCC2)C(=O)N(C)[C@H](C(=O)N(C)C)CC(=O)N1C [PP2998] | A (a compound having 10 or more and less than 20 is denoted as A) | AA (a compound having 20 or more is denoted as AA) |
| CCC[C@H]1C(=O)N[C@@H](C2CCOCC2)C(=O)N(C)CC(=O)N(C)[C@H]2C/C=C\CCN(C2=O)[C@@H](Cc2ccc(C)cc2)C(=O)N(C)CC(=O)N[C@@H](CCc2ccc(C(F)(F)F)c(Cl)c2)C(=O)N2C[C@H](OCC)C[C@H]2C(=O)NC2(CC(C)(C)C2)C(=O)N(C)[C@@H](C2CCCC2)C(=O)N(C)[C@H](C(=O)N(C)C)CC(=O)N1C [PP3002] | A (a compound having 10 or more and less than 20 is denoted as A) | A (a compound having 10 or more and less than 20 is denoted as A) |
| CCC[C@H]1C(=O)N[C@@H](C2CCCC2)C(=O)N(C)CC(=O)N(C)[C@H]2C/C=C\CCN(C2=O)[C@@H](Cc2ccc(C)cc2)C(=O)N(C)CC(=O)N[C@@H](CCc2ccc(C(F)(F)F)c(OC)c2)C(=O)N2C[C@H](OCC)C[C@H]2C(=O)NC2(CC(C)(C)C2)C(=O)N(C)[C@@H](CC(C)(C)C)C(=O)N(C)[C@H](C(=O)N(C)C)CC(=O)N1C [PP3005] | A (a compound having 10 or more and less than 20 is denoted as A) | B (a compound having 3 or more and less than 10 is denoted as B) |
| CCC[C@H]1C(=O)N[C@@H]([C@@H](C)CC)C(=O)N(C)CC(=O)N(C)[C@H]2C/C=C\CCN(C2=O)[C@@H](Cc2ccc(C)cc2)C(=O)N(C)CC(=O)N[C@@H](CCc2ccc(C(F)(F)F)c(OC)c2)C(=O)N2C[C@H](OCC)C[C@H]2C(=O)NC2(CC(C)(C)C2)C(=O)N(C)[C@@H](CC(C)C)C(=O)N(C)[C@H](C(=O)N(C)C)CC(=O)N1C [PP3008] | A (a compound having 10 or more and less than 20 is denoted as A) | A (a compound having 10 or more and less than 20 is denoted as A) |
| CCC[C@H]1C(=O)N[C@@H]([C@@H](C)CC)C(=O)N(C)CC(=O)N(C)[C@H]2C/C=C\CCN(C2=O)[C@@H](Cc2ccc(C)cc2)C(=O)N(C)CC(=O)N[C@@H](CCc2ccc(C(F)(F)F)c(OC)c2)C(=O)N2CC3(CC3)C[C@H]2C(=O)NC2(CC(C)(C)C2)C(=O)N(C)[C@@H](CC(C)(C)C)C(=O)N(C)[C@H](C(=O)N(C)C)CC(=O)N1C [PP3009] | A (a compound having 10 or more and less than 20 is denoted as A) | A (a compound having 10 or more and less than 20 is denoted as A) |
| CCC[C@H]1C(=O)N[C@@H](C2CCCC2)C(=O)N(C)CC(=O)N(C)[C@H]2C/C=C\CCN(C2=O)[C@@H](Cc2ccc(C)cc2)C(=O)N(C)CC(=O)N[C@@H](CCc2ccc(C(F)(F)F)c(OC)c2)C(=O)N2CC3(CC3)C[C@H]2C(=O)NC2(CC(C)(C)C2)C(=O)N(C)[C@@H](CC(C)(C)C)C(=O)N(C)[C@H](C(=O)N(C)C)CC(=O)N1C [PP3010] | B (a compound having 3 or more and less than 10 is denoted as B) | B (a compound having 3 or more and less than 10 is denoted as B) |
